Columns and labels:
human SGLT2 = biological target: T1, human SGLT2 (Homo sapiens, UniProt P31639); settings: disclosed in U.S. Patent Publication No. 2015/0152075; cited from earlier work
T1 sequence (P31639 1-672): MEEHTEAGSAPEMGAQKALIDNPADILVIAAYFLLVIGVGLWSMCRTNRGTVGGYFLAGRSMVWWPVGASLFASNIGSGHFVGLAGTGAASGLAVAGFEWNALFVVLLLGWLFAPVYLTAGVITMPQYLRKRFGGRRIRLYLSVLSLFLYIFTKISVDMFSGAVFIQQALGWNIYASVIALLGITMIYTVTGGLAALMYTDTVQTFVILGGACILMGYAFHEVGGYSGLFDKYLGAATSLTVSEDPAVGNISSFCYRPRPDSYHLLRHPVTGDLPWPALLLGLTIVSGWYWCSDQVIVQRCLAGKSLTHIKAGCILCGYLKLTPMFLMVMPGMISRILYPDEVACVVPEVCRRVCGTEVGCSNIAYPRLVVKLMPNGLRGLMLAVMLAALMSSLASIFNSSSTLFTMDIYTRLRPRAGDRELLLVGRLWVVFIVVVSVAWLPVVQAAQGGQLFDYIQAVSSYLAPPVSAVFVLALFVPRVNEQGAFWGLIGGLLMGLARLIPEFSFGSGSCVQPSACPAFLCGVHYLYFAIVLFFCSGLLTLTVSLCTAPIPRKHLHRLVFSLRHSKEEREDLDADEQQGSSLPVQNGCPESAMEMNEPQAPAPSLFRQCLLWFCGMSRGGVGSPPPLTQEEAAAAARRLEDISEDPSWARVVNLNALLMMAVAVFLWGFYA

[1] = test system: dogs with insulin-dependent diabetes mellitus (type 1 diabetes mellitus); test: Evaluation of body weight and blood pressure after administration of enavogliflozin; format: in vivo, dog
Description: (§1) This study evaluated the safety and efficacy of enavogliflozin along with insulin therapy in dogs with insulin-dependent diabetes mellitus (type 1 diabetes mellitus) as a prospective, open-label, non-randomized, multicenter, and proof-of-concept study. The efficacy and safety of enavogliflozin were evaluated at predetermined times during the treatment period.
(§2) Diabetic dogs meeting the following criteria were allowed to participate in a clinical trial: Small dogs under 15 years of age (less than 10 kg), medium-sized dogs under 13 years of age (11 to 22 kg), stable basal dose insulin therapy at least 1 month prior to the screening visit, post-insulin nadir (Nadir) blood glucose minimum of 200 mg/dl, and blood ketone levels less than 0.6 mmol/L.
(§3) However, diabetic dogs meeting the following criteria were excluded: Dogs with chronic kidney disease (CKD IRIS stage >2), hypotension evaluation, administration of diuretics or related drugs, confirmed pregnancy, and taking drugs affecting the test within 14 days prior to test start.
(§4) The study was performed for 8 weeks, and dogs participating in the clinical trial were divided into two groups, a TOD test group and a SID test group, according to the dose of enavogliflozin administered. Enavogliflozin was administered to the TOD test group and the SID test group at a dose of 0.025 mg/kg once every 3 days and once a day, respectively. For proper evaluation, the dogs were administered the drug with breakfast, and after dosing was completed, dogs underwent physical examinations such as blood pressure, blood tests and urine tests. Thereafter, researchers adjusted insulin doses to meet target blood glucose levels during monitoring (Nadir glucose levels, 80 to 150 mg/dl).
(§5) A primary evaluation variable was whether blood fructosamine levels decreased without developing severe hypoglycemia or diabetic ketoacidosis (DKA) after the animals were randomly divided into groups. […] The diagnosis of diabetic ketoacidosis was evaluated based on the presence of anion-gap metabolic acidosis associated with excessive ketogenesis without other causes. […]

[2] = test system: dogs with insulin-dependent diabetes mellitus (type 1 diabetes mellitus); test: Evaluation of regulation of blood glucose after 8 weeks of enavogliflozin with insulin; format: in vivo, dog
Description: as §1, §2, §3, §4
(§6) A primary evaluation variable was whether blood fructosamine levels decreased without developing severe hypoglycemia or diabetic ketoacidosis (DKA) after the animals were randomly divided into groups. A secondary evaluation variable was a change in fasting blood glucose levels, body weight and a mean bolus dose of insulin from baseline to 8 weeks. […] The diagnosis of diabetic ketoacidosis was evaluated based on the presence of anion-gap metabolic acidosis associated with excessive ketogenesis without other causes. Safety information including data on clinical and laboratory values and side effects was collected at each study visit.
(§7) Differences before and after drug administration within the groups were compared using the Student paired t-test or the Wilcoxon rank test. Furthermore, differences between groups after drug administration through a mixed ANOVA test were confirmed. Statistical analysis was performed with the R programming language (https://cran.r-project.org/) and GraphPad Prism version 7 (GraphPad Software, Inc., La Jolla, California). A p-value less than 0.05 was considered statistically significant.
The regulation of blood glucose before and after administration was confirmed through blood tests (fructosamine and fasting glucose) and the daily insulin dose. […] However, fructosamine concentration was improved (p=0.041). […] In addition, as a result of comparing the difference between the test groups at 8 weeks, there was no significant difference in fasting blood glucose, fructosamine, and insulin reduction rate. However, there was a tendency towards a decrease in the SID test group taking enavogliflozin once a day compared to the TOD test group taking enavogliflozin once every 3 days (FIGS. 2A to 2C).

[3] = test system: dogs with insulin-dependent diabetes mellitus (type 1 diabetes mellitus); test: Long-term effectiveness, enavogliflozin with insulin for up to 6 months; format: in vivo, dog
Description: In addition, long-term effectiveness was confirmed by additionally administering enavogliflozin to the companion dogs participating in the clinical trial at the same usage and dosage (SID or TOD) for up to 6 months.
as §7
Furthermore, as a result of confirming the long-term effectiveness by administering enavogliflozin at the same usage and dose for up to 6 months, fasting blood glucose, fructosamine and insulin reduction rate were improved in all SID/TOD test groups.

[4] = test system: dogs with insulin-dependent diabetes mellitus (type 1 diabetes mellitus); test: Evaluation of lipid metabolism after administration of enavogliflozin; format: in vivo, dog; settings: after 8 weeks treatment, mean ± S.D
Description: as §1, §2, §3, §4, §6, §7
Blood cholesterol was measured to confirm the effect of enavogliflozin on lipid metabolism. Changes in triglycerides and total cholesterol (T-Chol) were not statistically significant. […] In Table 5, all values are expressed as mean±S.D, and p-values less than 0.05 were considered statistically significant.

[5] = test system: dogs with insulin-dependent diabetes mellitus (type 1 diabetes mellitus); test: Evaluation of metabolic acidosis after administration of enavogliflozin; format: in vivo, dog; settings: for Anion Gap / HCO3 / Ketone (blood) / LDH / pH (venous blood gas): after 8 weeks treatment, mean ± S.D
Description: as §1, §2, §3, §4, §6, §7
In addition, when lactate dehydrogenase (LDH) was measured, there was no significant change in both test groups compared to before administration. Blood pH, bicarbonate (HCO3), and the anion gap were confirmed by a venous blood gas test, and there was no significant difference before and after administration (Table 4). […] In Table 4, all values are expressed as mean±S.D, and p-values less than 0.05 were considered statistically significant.

[6] = test system: dogs with insulin-dependent diabetes mellitus (type 1 diabetes mellitus); test: Evaluation of renal function (blood and urine tests) after administration of enavogliflozin; format: in vivo, dog; settings: after 8 weeks treatment, mean ± S.D
Description: as §1, §2, §3, §4, §6, §7
Changes in renal function before and after administration of enavogliflozin were confirmed through blood and urine tests. Blood test items include blood urea nitrogen (BUN), creatinine, symmetric di-methyl-arginine (SDMA), cystatin-C, beta-2-microglobulin (B2M) and N-acetyl-β-d-glucosaminidase (NAG). Urinalysis items include urine specific gravity (USG) and urine protein to creatinine (UPC) ratio.

[7] = test system: dogs with insulin-dependent diabetes mellitus (type 1 diabetes mellitus); test: Evaluation of side effects after administration of enavogliflozin with insulin (disease activity index, cystitis, hypoglycemia); format: in vivo, dog
Description: as §1, §2, §3, §4, §5

[8] = both groups (TOD and SID), 0.025 mg/kg with insulin, 8 weeks
[9] = TOD test group, 0.025 mg/kg once every 3 days with insulin, 8 weeks
[10] = SID administration group, 0.025 mg/kg once a day with insulin, up to 6 months (p<0.0234)
[11] = SID test group, 0.025 mg/kg once a day with insulin
[12] = TOD test group, 0.025 mg/kg once every 3 days with insulin

In the case of `OC[C@H]1O[C@@H](c2cc(Cc3ccc(C4CC4)cc3)c(Cl)c3c2CCO3)[C@H](O)[C@@H](O)[C@@H]1O` [enavogliflozin], the “inhibitory effect on human SGLT2 activity” value (human SGLT2) is given as “excellent inhibitory effect”, the “Blood pressure (systolic), change after administration” value ([1]; SID test group, 0.025 mg/kg once a day with insulin, 8 weeks (p=0.033)) is given as “significantly reduced” and the “BCS (body condition score), change after administration” value [1, 8] is given as “no difference”. The “Body weight, change after administration” value [1, 8] was “tended to decrease”, the daily insulin dose ([2]; SID test group, 0.025 mg/kg once a day with insulin, after 8 weeks (before: 2.0±0.8)) was 1.5±0.5 units/kg/day and the fasting blood glucose ([2]; SID test group, 0.025 mg/kg once a day with insulin, after 8 weeks (before: 330.8±118.0; p=0.0078)) was 215.5 ± 126.2 mg/dL. The fructosamine levels ([2]; SID test group, 0.025 mg/kg once a day with insulin, after 8 weeks (before: 475.3±107.6; p=0.034)) was 393.1 ± 122.9 µmol/L, the “daily insulin dose, change before/after administration” value [2, 9] was “decreased, but the difference was not statistically significant” and the “fasting blood glucose, change before/after administration” value [2, 9] was “decreased, but the difference was not statistically significant”. The “fructosamine concentration, change before/after administration” value ([2]; TOD test group, 0.025 mg/kg once every 3 days with insulin, 8 weeks (p=0.041)) was “improved”, the “fasting blood glucose, 6 months” value [3, 10] was “statistically significant reduction” and the “insulin reduction rate, 6 months” value [3, 10] was “statistically significant reduction”. For the same compound, the “fructosamine, 6 months” value ([3]; TOD test group, 0.025 mg/kg once every 3 days with insulin, up to 6 months (p<0.0313)) was “statistically significant reduction”, the “fasting blood glucose, fructosamine and insulin reduction rate, 6 months” value ([3]; all SID/TOD test groups, 0.025 mg/kg with insulin, up to 6 months) was “improved” and the Lipase [4, 11] was 226.8 ± 215.0 U/L. The “T-Chol (total cholesterol)” value [4, 11] was 261.3 ± 150.5 mg/dL, the Triglyceride [4, 11] was 515.2 ± 977.9 mg/dL and the Lipase [4, 12] was 197.3 ± 230.1 U/L. The “T-Chol (total cholesterol)” value [4, 12] was 327.6 ± 114.7 mg/dL, the Triglyceride [4, 12] was 384.9 ± 425.3 mg/dL and the “Anion Gap” value [5, 11] was 13.2 ± 4.5 mmol/L. The HCO3 [5, 11] was 25.0 ± 2.5 mmol/L, the “Ketone (blood)” value [5, 11] was 0.4 ± 0.1 mmol/L and the LDH [5, 11] was 230.8 ± 79.6 U/L. The “pH (venous blood gas)” value [5, 11] was 7.4 ± 0.1, the “Anion Gap” value [5, 12] was 12.0 ± 4.2 mmol/L and the HCO3 [5, 12] was 24.3 ± 3.6 mmol/L. The “Ketone (blood)” value [5, 12] was 0.2 ± 0.1 mmol/L, the LDH [5, 12] was 444.5 ± 584.7 U/L and the “pH (venous blood gas)” value [5, 12] was 7.4 ± 0.1. The diabetic ketoacidosis ([5]; both test groups, eight weeks after administration) was “did not occur”, the BUN ([6]; SID test group (n = 8), 0.025 mg/kg once a day with insulin) was 21.9 ± 6.8 mg/dL and the Creatinine [6, 11] was 0.6 ± 0.1 mg/dL. The Cystatin-C [6, 11] was 0.5 ± 0.1 mg/L, the NAG [6, 11] was 9.0±4.3 U/g and the SDMA [6, 11] was 7.8 ± 1.4 µg/dL. For the same compound, the “UPC (urine protein to creatinine ratio)” value [6, 11] was 1.1±1.6, the “USG (urine specific gravity)” value [6, 11] was 1.043±0.008 and the BUN ([6]; TOD test group (n = 10), 0.025 mg/kg once every 3 days with insulin) was 22.5 ± 11.7 mg/dL. It also gave a Creatinine [6, 12] of 0.9 ± 0.2 mg/dL, a Cystatin-C [6, 12] of 0.5 ± 0.2 mg/L and an NAG [6, 12] of 7.6±5.8 U/g. The SDMA [6, 12] was 9.2 ± 5.5 µg/dL, the “UPC (urine protein to creatinine ratio)” value [6, 12] was 1.1±1.8 and the “USG (urine specific gravity)” value [6, 12] was 1.034±0.011. For the same compound, the “new cases of bacterial cystitis” value ([7]; any test group (TOD, SID), 8 weeks) was “no new cases”, the “disease activity index (appetite, activity, stool status)” value ([7]; dog, in vivo) was “no difference between before and after administration” and the “severe hypoglycemia leading to loss of consciousness or seizures” value ([7]; dog, in vivo) was “no severe hypoglycemia”.
